In PubChem BioAssay (NCI):
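Interpolation was linear, between the two tested concentrations surrounding the appropriate level; five concentrations were tested over 48 hours in 96-well plates. GI50 = concentration required for 50% inhibition of growth. Definition used: TGI = concentration required for complete inhibition of growth.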

What was measured:
Assay in all cases: NCI anticancer screen, dose series, 48 h
[1] = system: EKVX NSCLC
[2] = system: MDA-MB-231 breast
[3] = system: T-47D breast
[4] = system: MDA-MB-435
[5] = system: A549 NSCLC
[6] = system: ACHN renal
[7] = system: SK-MEL-5 melanoma
[8] = system: UO-31 renal
[9] = system: SW-620 colon
[10] = system: CAKI-1 renal
[11] = system: SF-295 CNS
[12] = system: MCF7 breast
[13] = system: UACC-257 melanoma
[14] = system: LOX IMVI melanoma
[15] = system: UACC-62 melanoma
[16] = system: DU-145 prostate
[17] = system: RXF 393 renal
[18] = system: HT29 colon
[19] = system: OVCAR-4 ovarian
[20] = system: SF-268 CNS
[21] = system: NCI/ADR-RES ovarian
[22] = system: CCRF-CEM leukemia
[23] = system: NCI-H460 lung
[24] = system: HS 578T breast
[25] = system: M14 melanoma
[26] = system: COLO 205 colon
[27] = system: MALME-3M melanoma
[28] = system: KM12 colon
[29] = system: SK-MEL-2 melanoma
[30] = system: IGROV1 ovarian
[31] = system: SR leukemia
[32] = system: SN12C renal
[33] = system: SF-539 CNS
[34] = system: OVCAR-8 ovarian
[35] = system: K-562 leukemia
[36] = system: A498 renal
[37] = system: RPMI-8226 leukemia
[38] = system: HCT-15 colon
[39] = system: SK-OV-3 ovarian
[40] = system: U251 CNS
[41] = system: HOP-92 NSCLC
[42] = system: NCI-H226 lung
[43] = system: PC-3 prostate
[44] = system: SK-MEL-28 melanoma
[45] = system: HOP-62 NSCLC
[46] = system: MOLT-4 leukemia
[47] = system: SNB-19 CNS
[48] = system: NCI-H522 lung
[49] = system: OVCAR-5 ovarian
[50] = system: SNB-75 CNS
[51] = system: HCC-2998 colon
[52] = system: HCT-116 colon
[53] = system: 786-0 renal
[54] = system: TK-10 renal
[55] = system: OVCAR-3 ovarian
[56] = system: BT-549 breast
[57] = system: HL-60(TB) leukemia

`C/C(=C(/c1ccc(O)cc1)c1ccc(OCCN2CCCC2)cc1)c1ccc(Cl)cc1` showed a GI50 [1] of 5.84 µM, a TGI [1] of 18.7 µM and a GI50 [2] of 3.52 µM. The TGI [2] was 13.1 µM, the GI50 [3] was 1.54 µM and the TGI [3] was 10.4 µM. It also gave a GI50 [4] of 1.72 µM, a TGI [4] of 3.21 µM and a GI50 [5] of 7.58 µM. For the same compound, the TGI [5] was 20.5 µM, the GI50 [6] was 3.35 µM and the TGI [6] was 11.9 µM. It also gave a GI50 [7] of 1.78 µM, a TGI [7] of 3.23 µM and a GI50 [8] of 2.51 µM. For the same compound, the TGI [8] was 11.4 µM, the GI50 [9] was 1.69 µM and the TGI [9] was 3.24 µM. For the same compound, the GI50 [10] was 2.07 µM, the TGI [10] was 6.39 µM and the GI50 [11] was 2.16 µM. For the same compound, the TGI [11] was 4.77 µM, the GI50 [12] was 0.0364 µM and the TGI [12] was 3.26 µM. It also gave a GI50 [13] of 1.78 µM, a TGI [13] of 3.55 µM and a GI50 [14] of 1.71 µM. For the same compound, the TGI [14] was 3.17 µM, the GI50 [15] was 2.04 µM and the TGI [15] was 4.57 µM. It also gave a GI50 [16] of 4.54 µM, a TGI [16] of 15.7 µM and a GI50 [17] of 1.63 µM. For the same compound, the TGI [17] was 3.23 µM, the GI50 [18] was 1.73 µM and the TGI [18] was 3.41 µM. For the same compound, the GI50 [19] was 4.78 µM, the TGI [19] was 17.2 µM and the GI50 [20] was 4.78 µM. For the same compound, the TGI [20] was 20 µM, the GI50 [21] was 3.68 µM and the TGI [21] was 14.2 µM. It also gave a GI50 [22] of 2.41 µM, a TGI [22] of 7.38 µM and a GI50 [23] of 1.8 µM. For the same compound, the TGI [23] was 3.33 µM, the GI50 [24] was 2.56 µM and the TGI [24] was 8.36 µM. For the same compound, the GI50 [25] was 1.69 µM, the TGI [25] was 3.23 µM and the GI50 [26] was 1.64 µM. It also gave a TGI [26] of 3.14 µM, a GI50 [27] of 1.64 µM and a TGI [27] of 3.11 µM. It also gave a GI50 [28] of 3.39 µM, a TGI [28] of 12.2 µM and a GI50 [29] of 7.37 µM. For the same compound, the TGI [29] was 20.5 µM, the GI50 [30] was 4.62 µM and the TGI [30] was 17.5 µM. It also gave a GI50 [31] of 1.81 µM, a TGI [31] of 4.71 µM and a GI50 [32] of 5.21 µM. It also gave a TGI [32] of 18.2 µM, a GI50 [33] of 1.69 µM and a TGI [33] of 3.24 µM. The GI50 [34] was 2.82 µM, the TGI [34] was 8.04 µM and the GI50 [35] was 1.64 µM. It also gave a TGI [35] of 3.94 µM, a GI50 [36] of 16.6 µM and a TGI [36] of 32.3 µM. The GI50 [37] was 2.24 µM, the TGI [37] was 5.52 µM and the GI50 [38] was 1.99 µM. The TGI [38] was 4.62 µM, the GI50 [39] was 9.59 µM and the TGI [39] was 21.5 µM. For the same compound, the GI50 [40] was 2.03 µM, the TGI [40] was 4.59 µM and the GI50 [41] was 2.38 µM. It also gave a TGI [41] of 9.63 µM, a GI50 [42] of 10.8 µM and a TGI [42] of 32.4 µM. For the same compound, the GI50 [43] was 2.94 µM, the TGI [43] was 10.8 µM and the GI50 [44] was 1.75 µM. It also gave a TGI [44] of 3.21 µM, a GI50 [45] of 3.99 µM and a TGI [45] of 15 µM. For the same compound, the GI50 [46] was 2.52 µM, the TGI [46] was 6.02 µM and the GI50 [47] was 3.85 µM. The TGI [47] was 13.8 µM, the GI50 [48] was 1.83 µM and the TGI [48] was 4.11 µM. For the same compound, the GI50 [49] was 6.26 µM, the TGI [49] was 18.8 µM and the GI50 [50] was 3.06 µM. It also gave a TGI [50] of 16.6 µM, a GI50 [51] of 2.06 µM and a TGI [51] of 4.21 µM. For the same compound, the GI50 [52] was 1.63 µM, the TGI [52] was 3.21 µM and the GI50 [53] was 1.65 µM. It also gave a TGI [53] of 3.16 µM, a GI50 [54] of 13.6 µM and a TGI [54] of 27.3 µM. The GI50 [55] was 3.05 µM, the TGI [55] was 11.8 µM and the GI50 [56] was 8.98 µM. For the same compound, the TGI [56] was 21.1 µM, the GI50 [57] was 2.09 µM and the TGI [57] was 4.11 µM.
